“Also recorded” adds a separate entry of the source. Ends that are not written are not given here.
Columns and labels:
[1] = tested on: MCAK motor domain (His-M, His-NM); assay: Resin-based (glutathione agarose) GST pull-down binding assay; set-up: species or system human; conditions: GST-CT constructs on glutathione agarose beads; purified His-M / His-NM; Coomassie-stained gel
Excerpt: Kinesin-1 is regulated through an auto-inhibitory mechanism whereby one C-terminal tail binds at the interface of the two motors, such that it creates a second point of attachment in addition to the coiled coil region. This limits the head movement of one kinesin with respect to the other ([Stock et al., 1999]; [Hackney and Stock, 2000]; [Kaan et al., 2011]). We sought to test whether the C-terminal tail domain of MCAK, which has been proposed to regulate MCAK activity ([Moore and Wordeman, 2004]), was sufficient to interact with the motor domain. To do this, we expressed the N-terminal and motor region (residues 1–583, termed NM) or the motor region of MCAK along with the neck linker region (residues 181–583, termed M) as His-tagged proteins, and the C-terminal MCAK tail (residues 700–725, termed CT domain) as a GST fusion protein ([Moore and Wordeman, 2004]; [Hertzer et al., 2006]) (Figure 1A). […] We cannot however exclude a very tight interaction between two CT domains. […] Together, these experiments reveal that the MCAK CT domain interacts with its catalytic domain in solution.
Figure 4. Sequence requirement for the formation of a motor-CT tail complex. (A) Sequence alignment of the conserved CT domain of MCAK for various species alongside the Drosophila kinesin-13 Klp10A and human Kif2a. The conserved residues are highlighted in red. The three amino acids that are critical for binding to the motor domain are marked with a green star. (B) Sequence alignment of the C terminus of human Kif2a, Kif2b, and MCAK/Kif2c. Amino acid numbering is relative to the Kif2a sequence. The MCAK CT domain binding to the motor domain is boxed in green. The sequences were aligned using the program T-coffee (EBI) and formatted with ESPRIPT ([Gouet et al., 1999]). (C) Coomassie-stained gel showing a resin-based binding assay using glutathione agarose beads for purified His-M, binding to the GST-CT and GST-CT point mutants. (D) Size-exclusion chromatography elution profile of the motor domain alone (red dashes), motor incubated with the CT, CTS715E, CTE711A, E712A domains (cyan, green dashes, and purple, respectively). Bottom, coomassie-stained gel showing the size-exclusion chromatography elution of the motor incubated with the CTS715E and CTE711A, E712A domains (green and purple, respectively). DOI: http://dx.doi.org/10.7554/eLife.06421.008
Protein expression was induced by addition of 0.5 mM IPTG to BL21(DE3) Codon plus cells transformed with respective constructs at OD600 of 0.7–0.8 for 16 hr at 18°C. Cells were lysed by sonication in lysis buffer (50 mM Hepes, pH 7.4, 200 mM NaCl, 1 mM MgCl2, 1 mM PMSF, 1 mg/ml DNaseI, 2 mg/ml lysozyme, 10 mM Imidazole) and clarified at 20,000 rpm for 1 hr at 4°C. His-tagged and GST-tagged proteins were subsequently purified using Ni-NTA–agarose beads and glutathione-sepharose beads, respectively (GE Healthcare Life Sciences, UK)) according to the manufacturer's guidelines. MCAK constructs containing the motor domain were eluted with elution buffer (50 mM Hepes, pH 7.4, 200 mM NaCl, 1 mM MgCl2, 1 mM ATP, and 300 mM imidazole). Cleavage of the GST tag was performed using the GST-3C protease overnight at 4°C. Proteins were further purified using gel filtration chromatography pre-equilibrated in gel filtration buffer (For full-length MCAK: 100 mM HEPES, pH 7.3, 200 mM NaCl, 200 mM KCl, 1 mM DTT, 1 mM MgCl2, 1 mM Na-EGTA, 1 mM ATP; for the motor domain constructs: 50 mM HEPES, pH 7.2, 150 mM NaCl, 1 mM DTT, 1 mM MgCl2, 1 mM Na-EGTA, 1 mM ATP; for CT domain constructs: 50 mM HEPES, pH 7.2, 150 mM NaCl, 1 mM DTT, 1 mM MgCl2, 1 mM Na-EGTA). Analytical gel filtration chromatography was performed using either a Superdex 75 or a Superose 6 10/300 GL column (GE Healthcare, UK). To purify the CT domain alone, we cleaved GST and CT after gel filtration and a concentration step, and performed a glutathione affinity-purification third step to remove the GST and collect the CT domain. […]

[2] = biological target: T1, MCAK motor domain (Homo sapiens, UniProt Q99661); assay: Analytical size-exclusion chromatography (motor-CT complex formation); type: binding; conditions: Superdex 75 or Superose 6 10/300 GL; Coomassie-stained gel of fractions
T1 construct: His-MCAK (183–583, M) and His-MCAK (1–583, NM) were subcloned in pET3aTr vector; made in house; host or cells: E. coli BL21(DE3) Codon plus
Excerpt: Full-length MCAK is a dimer in solution ([Maney et al., 2001]). Therefore, we sought to test whether the CT domain interacts with one or two motor domains. To define the stoichiometry of this interaction, we subjected the complex to analytical size-exclusion chromatography. The motor domain alone behaves as a monomer and eluted with an apparent size of ∼45 kDa. […] Using SDS-PAGE analysis, we confirmed that the shift to a larger complex was due to the interaction of the motor domain with the CT domain (Figure 1C, bottom). […] The predicted masses for complexes of one and two CT domains bound to two motor domains are ∼94.2 and 97.7 kDa, respectively. […] Since the CT domain is unlikely to dimerize alone (Figure 1B), we conclude that the MCAK CT domain induces the dimerization of the motor domains cooperatively.
Protein expression was induced by addition of 0.5 mM IPTG to BL21(DE3) Codon plus cells transformed with respective constructs at OD600 of 0.7–0.8 for 16 hr at 18°C. Cells were lysed by sonication in lysis buffer (50 mM Hepes, pH 7.4, 200 mM NaCl, 1 mM MgCl2, 1 mM PMSF, 1 mg/ml DNaseI, 2 mg/ml lysozyme, 10 mM Imidazole) and clarified at 20,000 rpm for 1 hr at 4°C. His-tagged and GST-tagged proteins were subsequently purified using Ni-NTA–agarose beads and glutathione-sepharose beads, respectively (GE Healthcare Life Sciences, UK)) according to the manufacturer's guidelines. MCAK constructs containing the motor domain were eluted with elution buffer (50 mM Hepes, pH 7.4, 200 mM NaCl, 1 mM MgCl2, 1 mM ATP, and 300 mM imidazole). Cleavage of the GST tag was performed using the GST-3C protease overnight at 4°C. […] Protein concentrations were determined with a combination of Bradford protein assays and densitometry of Coomassie-stained gels relative to a BSA standard. […]

[3] = tested on: taxol-stabilized microtubules; assay: Microtubule cosedimentation assay, untreated microtubules; type: binding; conditions: 100 nM full-length MCAKS715E, 2 μM taxol-stabilized microtubules, increasing free CT or CTS715E; repeated three times
Experimental: Full-length MCAK complex was diluted in S buffer (50 mM NaCl, 20 mM Hepes pH 7.0) to 50 nM, in absence of nucleotide to prevent MCAK-dependent microtubule depolymerisation. To assemble an MCAK motor-CT domain complex, 50 nM of the motor domain and 100 nM of the CT domain were used. Microtubule binding assays were performed as described ([Cheeseman et al., 2006]) using equal volumes of taxol-stabilized microtubules in BRB80 and MCAK in S buffer. MCAK was quantified using anti-MCAK antibody against the C terminus of MCAK (709[…]720), generated by GL Biochem (Shangai) Ltd (China) or anti-His antibody to probe for the motor domain alone (GE Healthcare Lifesciences, UK). The data from at least three independent experiments were fitted to a modified Hill equation to determine the apparent Kd.

[4] = tested on: MCAK motor domain (Cys287); assay: Covalent (disulphide) attachment of the CT domain to the motor domain; type: binding, human
Experimental: The GST-CTE712C and CTE712C domains were cross-linked to the motor domain by incubating them with the motor domain in a buffer containing 100 mM HEPES, pH 7.4, 150 mM NaCl but lacking DTT for 1 hr at 4°C. As a negative control the motor domain and the CTE712C domain were incubated in the identical buffer, supplemented with 5 mM DTT.

T1 sequence (Q99661 183-583): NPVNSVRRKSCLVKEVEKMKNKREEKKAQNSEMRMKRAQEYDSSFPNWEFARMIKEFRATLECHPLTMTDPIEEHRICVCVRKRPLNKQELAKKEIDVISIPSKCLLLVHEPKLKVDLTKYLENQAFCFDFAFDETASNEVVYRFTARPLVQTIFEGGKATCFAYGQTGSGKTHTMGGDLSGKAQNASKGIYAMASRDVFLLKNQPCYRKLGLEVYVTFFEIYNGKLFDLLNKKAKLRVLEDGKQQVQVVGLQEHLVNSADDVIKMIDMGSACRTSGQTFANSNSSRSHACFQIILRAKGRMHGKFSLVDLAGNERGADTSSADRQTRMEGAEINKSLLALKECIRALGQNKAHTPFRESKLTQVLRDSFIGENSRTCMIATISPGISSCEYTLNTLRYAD

| Substance | binding to the motor domain of MCAK [1] | also measured |
| --- | --- | --- |
| CTE711A, E712A: CT domain point mutant E711A, E712A (VIKALRLAMQLAAQASRQISSKKRPQ; not fully specified) | no longer bound to the motor domain of MCAK |  |
| GST-CT: C-terminal MCAK tail (residues 700–725) as a GST fusion protein (VIKALRLAMQLEEQASRQISSKKRPQ; also: GST fusion partner not in chain) | bound to both the NM and M domains of MCAK as a stable complex; also recorded: bound to the motor domain |  |
| CTS715E: CT domain point mutant S715E (VIKALRLAMQLEEQAERQISSKKRPQ; left off: GST, end not stated, cleaved) |  | binding to / co-migration with motor domain by gel filtration [2]: did not co-migrate; effect of free CT domain on MCAKS715E binding to microtubules [3]: did not interfere with MCAKS715E binding to microtubules |
| GST-CTE712C: cleavable GST fusion of CTE712C domain (VIKALRLAMQLECQASRQISSKKRPQ; also: GST fusion partner not in chain) |  | binding to / co-migration with motor domain by gel filtration [2]: eluted as a single peak, earlier than the peak for the motor alone; efficiency of disulphide bridge formation with motor domain ([4]; absence of DTT, Coomassie-stained gel): ~50%; formation of covalent complex with motor ([4]; oxidizing conditions (without DTT), 100 mM HEPES pH 7.4, 150 mM NaCl, 1 hr at 4°C): formed a covalent complex |

Further lines, with some results ahead:

| binding to the motor domain of MCAK [1] | Substance | also measured |
| --- | --- | --- |
| bound robustly | CTI718A: CT domain point mutant I718A (VIKALRLAMQLEEQASRQASSKKRPQ; not fully specified) |  |
| did not interact with the motor domain | GST-CTS715E: GST fusion of CT domain S715E (VIKALRLAMQLEEQAERQISSKKRPQ; also: GST fusion partner not in chain) |  |
| bound to the motor domain | GST-CTS715A: GST fusion of CT domain S715A (VIKALRLAMQLEEQAARQISSKKRPQ; also: GST fusion partner not in chain) |  |
| bound robustly | CTR716A: CT domain point mutant R716A (VIKALRLAMQLEEQASAQISSKKRPQ; not fully specified) |  |
